Experimental data taken from publication PMC5218480 (PLoS ONE, 2017).

System: MV-4-11 cells
Assay: Gene expression microarray analysis (Affymetrix PrimeView) and GSEA
Assay type: cell-based, human
Set-up: RFU PODN (11730768_x_at) / Fold change /veh PODN (11730768_x_at) / RFU LINC00158 (11744669_a_at) / Fold change /veh LINC00158 (11744669_a_at) / RFU DUSP10 (11751237_a_at) / Fold change /veh DUSP10 (11751237_a_at) / RFU ID3 (11757404_x_at) / Fold change /veh ID3 (11757404_x_at) / RFU PLEKHG5 (11737974_s_at) / Fold change /veh PLEKHG5 (11737974_s_at) / RFU LRRC4B (11730491_at) / Fold change /veh LRRC4B (11730491_at) / RFU GIMAP4 (11747438_a_at) / Fold change /veh GIMAP4 (11747438_a_at) / RFU KRT8 (11758183_x_at) / Fold change /veh KRT8 (11758183_x_at) / RFU CNN1 (11734310_a_at) / Fold change /veh CNN1 (11734310_a_at) / RFU VPS37D (11726825_at) / Fold change /veh VPS37D (11726825_at) / RFU C10orf10 (11716522_x_at) / Fold change /veh C10orf10 (11716522_x_at) / RFU KIR2DL2 /// KIR2DL4 /// KIR2DL5A /// KIR2DL5B /// KIR2DS1 /// KIR2DS2 /// KIR2DS3 /// KIR2DS4 /// KIR3DL3 /// KIR3DL3 /// KIR3DS1 (11738374_at) / Fold change /veh KIR2DL2 /// KIR2DL4 /// KIR2DL5A /// KIR2DL5B /// KIR2DS1 /// KIR2DS2 /// KIR2DS3 /// KIR2DS4 /// KIR3DL3 /// KIR3DL3 /// KIR3DS1 (11738374_at) / RFU C1QL1 (11718748_at) / Fold change /veh C1QL1 (11718748_at) / RFU TMPRSS4 (11747572_a_at) / Fold change /veh TMPRSS4 (11747572_a_at) / RFU HAMP (11756126_x_at) / Fold change /veh HAMP (11756126_x_at) / RFU RNFT2 (11725882_a_at) / Fold change /veh RNFT2 (11725882_a_at) / RFU NR4A2 (11747474_a_at) / Fold change /veh NR4A2 (11747474_a_at) / RFU ABCC12 (11746883_a_at) / Fold change /veh ABCC12 (11746883_a_at) / RFU TMEM136 (11760407_x_at) / Fold change /veh TMEM136 (11760407_x_at) / RFU CLDN22 /// WWC2 (11732394_at) / Fold change /veh CLDN22 /// WWC2 (11732394_at) / RFU HLA-DPB1 (11760878_x_at) / Fold change /veh HLA-DPB1 (11760878_x_at) / RFU SPINT1 (11716480_a_at) / Fold change /veh SPINT1 (11716480_a_at) / RFU GAP43 (11754022_s_at) / Fold change /veh GAP43 (11754022_s_at) / RFU A4GNT (11735810_at) / Fold change /veh A4GNT (11735810_at) / RFU PRB3 (11715151_x_at) / Fold change /veh PRB3 (11715151_x_at) / RFU TUBB4B (11761932_at) / Fold change /veh TUBB4B (11761932_at) / RFU CAPN14 (11732068_a_at) / Fold change /veh CAPN14 (11732068_a_at) / RFU TMCC2 (11721928_a_at) / Fold change /veh TMCC2 (11721928_a_at) / RFU IRGQ (11745062_a_at) / Fold change /veh IRGQ (11745062_a_at) / RFU FAM174B (11720279_a_at) / Fold change /veh FAM174B (11720279_a_at) / RFU TMPRSS4 (11748680_a_at) / Fold change /veh TMPRSS4 (11748680_a_at) / RFU FAM212B (11763350_a_at) / Fold change /veh FAM212B (11763350_a_at) / RFU PLEKHG5 (11743358_a_at) / Fold change /veh PLEKHG5 (11743358_a_at) / RFU ZSCAN30 (11745921_a_at) / Fold change /veh ZSCAN30 (11745921_a_at) / RFU CMKLR1 (11741424_a_at) / Fold change /veh CMKLR1 (11741424_a_at) / RFU LOC101060620 /// MAPK8IP1 (11723275_at) / Fold change /veh LOC101060620 /// MAPK8IP1 (11723275_at) / RFU SPTSSB (11747773_x_at) / Fold change /veh SPTSSB (11747773_x_at) / RFU PRSS12 (11739890_at) / Fold change /veh PRSS12 (11739890_at) / RFU BIN1 (11741810_x_at) / Fold change /veh BIN1 (11741810_x_at) / RFU WNT11 (11732464_a_at) / Fold change /veh WNT11 (11732464_a_at) / RFU C10orf10 (11716521_a_at) / Fold change /veh C10orf10 (11716521_a_at) / RFU C5orf56 (11738089_at) / Fold change /veh C5orf56 (11738089_at) / RFU CYB561 (11721691_x_at) / Fold change /veh CYB561 (11721691_x_at) / RFU ANKRD19P (11752326_a_at) / Fold change /veh ANKRD19P (11752326_a_at) / RFU OR2T12 /// OR2T33 /// OR2T8 (11738714_s_at) / Fold change /veh OR2T12 /// OR2T33 /// OR2T8 (11738714_s_at) / RFU VCAN (11748164_a_at) / Fold change /veh VCAN (11748164_a_at) / RFU JSRP1 (11732532_at) / Fold change /veh JSRP1 (11732532_at) / RFU KRTAP10-11 (11738290_x_at) / Fold change /veh KRTAP10-11 (11738290_x_at) / RFU MYO3A (11730013_a_at) / Fold change /veh MYO3A (11730013_a_at) / RFU EBF3 (11725865_a_at) / Fold change /veh EBF3 (11725865_a_at) / RFU CAMK2N1 (11719241_x_at) / Fold change /veh CAMK2N1 (11719241_x_at) / RFU C5orf56 (11738088_a_at) / Fold change /veh C5orf56 (11738088_a_at) / RFU OLFML3 (11715873_a_at) / Fold change /veh OLFML3 (11715873_a_at) / RFU LOC100653217 /// NTM (11731650_a_at) / Fold change /veh LOC100653217 /// NTM (11731650_a_at) / RFU MAPK11 (11762145_a_at) / Fold change /veh MAPK11 (11762145_a_at) / RFU FIZ1 (11724087_x_at) / Fold change /veh FIZ1 (11724087_x_at) / RFU OASL (11726364_x_at) / Fold change /veh OASL (11726364_x_at) / RFU SOX15 (11748057_x_at) / Fold change /veh SOX15 (11748057_x_at) / RFU CD79A (11719716_a_at) / Fold change /veh CD79A (11719716_a_at) / RFU HIST1H1D (11736915_at) / Fold change /veh HIST1H1D (11736915_at) / RFU CASKIN2 (11723855_a_at) / Fold change /veh CASKIN2 (11723855_a_at) / RFU LOC730098 (11760151_x_at) / Fold change /veh LOC730098 (11760151_x_at) / RFU OR4N2 (11742367_at) / Fold change /veh OR4N2 (11742367_at) / RFU PRRT2 (11749266_a_at) / Fold change /veh PRRT2 (11749266_a_at) / RFU SNX32 (11753110_a_at) / Fold change /veh SNX32 (11753110_a_at) / RFU CDHR5 (11726645_a_at) / Fold change /veh CDHR5 (11726645_a_at) / RFU RCAN1 (11760418_a_at) / Fold change /veh RCAN1 (11760418_a_at) / RFU FAM167A (11723789_a_at) / Fold change /veh FAM167A (11723789_a_at) / RFU FAM26E (11764081_at) / Fold change /veh FAM26E (11764081_at) / RFU ISYNA1 (11749810_s_at) / Fold change /veh ISYNA1 (11749810_s_at) / RFU ACY1 (11761880_at) / Fold change /veh ACY1 (11761880_at) / RFU 11764098_at / Fold change /veh 11764098_at / RFU SAMD14 (11745864_x_at) / Fold change /veh SAMD14 (11745864_x_at) / RFU NPB (11741838_a_at) / Fold change /veh NPB (11741838_a_at) / RFU TMPRSS6 (11731388_a_at) / Fold change /veh TMPRSS6 (11731388_a_at) / RFU KRTAP10-2 (11738614_at) / Fold change /veh KRTAP10-2 (11738614_at) / RFU ARHGAP8 /// PRR5-ARHGAP8 (11727945_x_at) / Fold change /veh ARHGAP8 /// PRR5-ARHGAP8 (11727945_x_at) / RFU KRTAP5-7 /// NADSYN1 (11734609_at) / Fold change /veh KRTAP5-7 /// NADSYN1 (11734609_at) / RFU RASL12 (11751679_a_at) / Fold change /veh RASL12 (11751679_a_at) / RFU CDKN2B (11736163_a_at) / Fold change /veh CDKN2B (11736163_a_at) / RFU PRF1 (11729649_at) / Fold change /veh PRF1 (11729649_at) / RFU, ZNF638 /// ZNF638-IT1 / Fold change vs veh, ZNF638 /// ZNF638-IT1 / RFU, PANK3 / Fold change vs veh, PANK3 / RFU, SH3YL1 / Fold change vs veh, SH3YL1 / RFU, ZEB2 / Fold change vs veh, ZEB2 / RFU, NRIP1 / Fold change vs veh, NRIP1 / RFU, PTTG1IP / Fold change vs veh, PTTG1IP / RFU, CAPN2 / Fold change vs veh, CAPN2 / RFU, MED14 / Fold change vs veh, MED14 / RFU, SNORA58 / Fold change vs veh, SNORA58 / RFU, C1orf63 / Fold change vs veh, C1orf63 / RFU, LRRFIP1 / Fold change vs veh, LRRFIP1 / RFU, NDUFAF7 / Fold change vs veh, NDUFAF7 / RFU, SLC12A2 / Fold change vs veh, SLC12A2 / RFU, IBTK / Fold change vs veh, IBTK / RFU, ESF1 / Fold change vs veh, ESF1 / Fold change vs veh, TMEM50B / RFU, TAOK1 / Fold change vs veh, TAOK1 / RFU, ACBD3 / Fold change vs veh, ACBD3 / RFU, TMA16 / Fold change vs veh, TMA16 / RFU, RWDD3 / Fold change vs veh, RWDD3 / RFU, BCAT1 / Fold change vs veh, BCAT1 / RFU, EDEM3 / Fold change vs veh, EDEM3 / RFU, TMEM33 / Fold change vs veh, TMEM33 / RFU, WDR75 / Fold change vs veh, WDR75 / RFU, AHCTF1 / Fold change vs veh, AHCTF1 / RFU, TFRC / Fold change vs veh, TFRC / RFU, ZDHHC17 / Fold change vs veh, ZDHHC17 / RFU, NOM1 / Fold change vs veh, NOM1 / RFU, ARL8B / Fold change vs veh, ARL8B / RFU, ZBTB11 / Fold change vs veh, ZBTB11 / RFU, TAMM41 / Fold change vs veh, TAMM41 / RFU, KIAA1704 /// LOC100996395 / Fold change vs veh, KIAA1704 /// LOC100996395 / RFU, ING1 / Fold change vs veh, ING1 / RFU, TRMT61B / Fold change vs veh, TRMT61B / RFU, FUBP3 / Fold change vs veh, FUBP3 / RFU, TP53 / Fold change vs veh, TP53 / RFU, TNKS2 / Fold change vs veh, TNKS2 / RFU, ZFP14 / Fold change vs veh, ZFP14 / RFU, ACTR2 / Fold change vs veh, ACTR2 / RFU, PPP3R1 / Fold change vs veh, PPP3R1 / RFU, PIK3R1 / Fold change vs veh, PIK3R1 / RFU, HNRNPA1 / Fold change vs veh, HNRNPA1 / RFU, RNF170 / Fold change vs veh, RNF170 / RFU, ZNF28 / Fold change vs veh, ZNF28 / RFU, RNGTT / Fold change vs veh, RNGTT / RFU, OGT / Fold change vs veh, OGT / RFU, BRD1 / Fold change vs veh, BRD1 / RFU, MARS / Fold change vs veh, MARS / RFU, ZNF655 / Fold change vs veh, ZNF655 / RFU, FAHD1 / Fold change vs veh, FAHD1 / RFU, BDP1 / Fold change vs veh, BDP1 / RFU, LRRCC1 / Fold change vs veh, LRRCC1 / RFU, ARID1A / Fold change vs veh, ARID1A / RFU, ZNF146 / Fold change vs veh, ZNF146 / RFU, ZNF330 / Fold change vs veh, ZNF330 / RFU, GPN3 / Fold change vs veh, GPN3 / RFU, C9orf123 / Fold change vs veh, C9orf123 / RFU, N4BP2L2 / Fold change vs veh, N4BP2L2 / RFU, ARFIP1 / Fold change vs veh, ARFIP1 / RFU, FAM179B / Fold change vs veh, FAM179B / RFU, BCL10 / Fold change vs veh, BCL10 / RFU, UHRF1BP1L / Fold change vs veh, UHRF1BP1L / RFU, BET1 / Fold change vs veh, BET1 / RFU, CNOT2 / Fold change vs veh, CNOT2 / RFU, ZNF268 / Fold change vs veh, ZNF268 / Fold change vs veh, ZNF507 / RFU, DGCR2 / Fold change vs veh, DGCR2 / RFU, WDSUB1 / Fold change vs veh, WDSUB1 / Fold change vs veh, HSP90B1 /// MIR3652 / RFU, ADSS / Fold change vs veh, ADSS / RFU, GK / Fold change vs veh, GK / RFU, ZNF148 / Fold change vs veh, ZNF148 / RFU, TAF9 / Fold change vs veh, TAF9 / RFU, SLC1A5 / Fold change vs veh, SLC1A5 / RFU, SLMO2 / Fold change vs veh, SLMO2 / RFU, ABCC4 / Fold change vs veh, ABCC4 / RFU, LOC101060439 /// RAP1B / Fold change vs veh, LOC101060439 /// RAP1B / RFU, RFX7 / Fold change vs veh, RFX7 / RFU, GTPBP10 / Fold change vs veh, GTPBP10 / RFU, CNEP1R1 / Fold change vs veh, CNEP1R1 / RFU, BIVM-ERCC5 /// ERCC5 / Fold change vs veh, BIVM-ERCC5 /// ERCC5 / RFU, ILF3 / Fold change vs veh, ILF3 / RFU 11762660_at / Fold change /veh 11762660_at / RFU VCAN (11757783_s_at) / Fold change /veh VCAN (11757783_s_at) / RFU DDX43 (11728927_at) / Fold change /veh DDX43 (11728927_at) / RFU KRT8 (11758188_x_at) / Fold change /veh KRT8 (11758188_x_at) / RFU NKD1 (11759106_at) / Fold change /veh NKD1 (11759106_at) / RFU SRD5A1 (11742802_a_at) / Fold change /veh SRD5A1 (11742802_a_at) / RFU TPSAB1 /// TPSB2 (11721975_s_at) / Fold change /veh TPSAB1 /// TPSB2 (11721975_s_at) / RFU GSTM3 (11746129_a_at) / Fold change /veh GSTM3 (11746129_a_at) / RFU IL23R (11737362_x_at) / Fold change /veh IL23R (11737362_x_at) / RFU TMEM51 (11727254_a_at) / Fold change /veh TMEM51 (11727254_a_at) / RFU PIWIL2 (11732686_x_at) / Fold change /veh PIWIL2 (11732686_x_at) / RFU ORM1 (11744905_x_at) / Fold change /veh ORM1 (11744905_x_at) / RFU CCDC152 (11743942_at) / Fold change /veh CCDC152 (11743942_at) / RFU ECM1 (11717891_a_at) / Fold change /veh ECM1 (11717891_a_at) / RFU IL23R (11748794_a_at) / Fold change /veh IL23R (11748794_a_at) / RFU TNFAIP8L3 (11732012_x_at) / Fold change /veh TNFAIP8L3 (11732012_x_at) / RFU MBOAT4 (11741988_at) / Fold change /veh MBOAT4 (11741988_at) / RFU 11764193_at / Fold change /veh 11764193_at / RFU TMEM53 (11763286_at) / Fold change /veh TMEM53 (11763286_at) / RFU MAGEB2 (11727129_at) / Fold change /veh MAGEB2 (11727129_at) / RFU TMEM200A (11744735_a_at) / Fold change /veh TMEM200A (11744735_a_at) / RFU CCDC152 (11751479_a_at) / Fold change /veh CCDC152 (11751479_a_at) / RFU FAM211A (11726209_a_at) / Fold change /veh FAM211A (11726209_a_at) / RFU RGS16 (11746705_a_at) / Fold change /veh RGS16 (11746705_a_at) / RFU VCAN (11755009_s_at) / Fold change /veh VCAN (11755009_s_at) / RFU RHOB (11743442_s_at) / Fold change /veh RHOB (11743442_s_at) / RFU RGS16 (11720943_a_at) / Fold change /veh RGS16 (11720943_a_at) / RFU RGS16 (11720944_at) / Fold change /veh RGS16 (11720944_at) / RFU, VPS4B / Fold change vs veh, VPS4B / RFU, CREB1 / Fold change vs veh, CREB1 / RFU, DNAJC13 / Fold change vs veh, DNAJC13 / RFU, GNAQ / Fold change vs veh, GNAQ / RFU, CDK5R1 / Fold change vs veh, CDK5R1 / RFU, ZRANB3 / Fold change vs veh, ZRANB3 / RFU, CUL4A / Fold change vs veh, CUL4A / RFU, CCNY / Fold change vs veh, CCNY / RFU, UFL1 / Fold change vs veh, UFL1 / RFU, COG3 / Fold change vs veh, COG3 / RFU, DIAPH2 / Fold change vs veh, DIAPH2 / RFU, SKA2 / Fold change vs veh, SKA2 / RFU, AFF3 / Fold change vs veh, AFF3 / RFU, LMF1 / Fold change vs veh, LMF1 / RFU, IPO11 / Fold change vs veh, IPO11 / RFU, DFFB / Fold change vs veh, DFFB / RFU, FOXP1 / Fold change vs veh, FOXP1 / RFU, CARD8 / Fold change vs veh, CARD8 / RFU, STRN3 / Fold change vs veh, STRN3 / RFU, ADK / Fold change vs veh, ADK / RFU, RASSF2 / Fold change vs veh, RASSF2 / RFU, WIPF1 / Fold change vs veh, WIPF1 / RFU, LARP1B / Fold change vs veh, LARP1B / RFU, RASA1 / Fold change vs veh, RASA1 / RFU, RB1 / Fold change vs veh, RB1 / RFU, PPFIA1 / Fold change vs veh, PPFIA1 / RFU, MAT2A / Fold change vs veh, MAT2A / RFU, CCT5 / Fold change vs veh, CCT5 / RFU, WDR92 / Fold change vs veh, WDR92 / RFU, CUX1 / Fold change vs veh, CUX1 / RFU, TTC7A / Fold change vs veh, TTC7A / RFU, TMEM135 / Fold change vs veh, TMEM135 / RFU, DEPTOR / Fold change vs veh, DEPTOR / RFU, CPM / Fold change vs veh, CPM / RFU, DNAJB6 / Fold change vs veh, DNAJB6 / RFU, CACNA2D3 / Fold change vs veh, CACNA2D3 / RFU, DTX4 / Fold change vs veh, DTX4 / RFU, TFCP2 / Fold change vs veh, TFCP2 / RFU, GMCL1 /// GMCL1P1 / Fold change vs veh, GMCL1 /// GMCL1P1 / RFU, AEBP2 / Fold change vs veh, AEBP2 / RFU, SNHG1 /// SNORD22 /// SNORD25 /// SNORD26 /// SNORD27 /// SNORD28 /// SNORD29 /// SNORD31 / Fold change vs veh, SNHG1 /// SNORD22 /// SNORD25 /// SNORD26 /// SNORD27 /// SNORD28 /// SNORD29 /// SNORD31 / Fold change (Aza/veh), C12orf56 (ProbeSet 11735607_a_at) / Fold change (ACY-1035/veh), C12orf56 (ProbeSet 11735607_a_at) / Fold change (Aza/veh), FGFR1OP (ProbeSet 11751329_s_at) / Fold change (ACY-1035/veh), FGFR1OP (ProbeSet 11751329_s_at) / Fold change (Aza/veh), VPS36 (ProbeSet 11739960_a_at) / Fold change (ACY-1035/veh), VPS36 (ProbeSet 11739960_a_at) / RFU SYPL1 (11715823_x_at) / Fold change /veh SYPL1 (11715823_x_at) / RFU IGFBP7 (11715501_s_at) / Fold change /veh IGFBP7 (11715501_s_at) / RFU REEP3 (11722064_at) / Fold change /veh REEP3 (11722064_at) / RFU IGLL1 (11728026_x_at) / Fold change /veh IGLL1 (11728026_x_at): dose or concentration left out as unconfirmed
Details: ProbeSet 11716999_a_at; LIST D

## Nc1ccc(-c2cccs2)cc1NC(=O)c1ccc2c(c1)cc(C1CC1)n2CCN1CCOCC1 [ACY-1035]
  Fold change vs veh, RASA1: 0.84
